Experimental data taken from patent US20080170993A1, “THYMIDINE ANALOGS FOR IMAGING” (priority 2006, published 2008).

These compounds were tested against T1, recombinant thymidine kinase 1 (TK-1) (Homo sapiens, UniProt P04183). Conditions: cold 19F analogues; 100 μM ATP+P-32-ATP, 10-60 ng thymidine kinase; TLC, phosphoimager; thymidine 100%.
T1 sequence (P04183 1-234): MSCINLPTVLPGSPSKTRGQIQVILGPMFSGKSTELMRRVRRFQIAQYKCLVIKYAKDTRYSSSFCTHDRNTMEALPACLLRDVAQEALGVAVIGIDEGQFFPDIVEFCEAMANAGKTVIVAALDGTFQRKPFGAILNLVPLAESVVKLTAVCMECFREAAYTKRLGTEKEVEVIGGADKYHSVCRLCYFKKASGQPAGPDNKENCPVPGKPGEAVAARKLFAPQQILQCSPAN

Structure (SMILES) | In vitro-Phosphorylation
Cc1cn([C@H]2C[C@H](O)[C@@H](CO)O2)c(=O)n(CCCNC(=O)c2ccc(F)c(C(F)(F)F)c2)c1=O | 12% ± 1.1%
Cc1cn([C@H]2C[C@H](O)[C@@H](CO)O2)c(=O)n(CCCCN(C)C(=O)c2ccc(F)c(C#N)c2)c1=O | 12% ± 2.8%
Cc1cn([C@H]2C[C@H](O)[C@@H](CO)O2)c(=O)n(CCNC(=O)CNC(=O)C(CF)NS(=O)(=O)c2c(C(C)C)cc(C(C)C)cc2C(C)C)c1=O (some centres unmarked) | 19% ± 3.7%
Cc1cn([C@H]2C[C@H](O)[C@@H](CO)O2)c(=O)n(CCCCCCNC(=O)CNC(=O)C(CF)NS(=O)(=O)c2c(C(C)C)cc(C(C)C)cc2C(C)C)c1=O (some centres unmarked) | 17% ± 10.2%
Cc1cn([C@H]2C[C@H](O)[C@@H](CO)O2)c(=O)n(CCCNC(=O)Cc2ccc([Si](F)(C(C)C)C(C)C)cc2)c1=O | 17% ± 1.5%
N#Cc1cc(C(=O)NCCCCCCn2c(=O)c(C(F)(F)F)cn([C@H]3C[C@H](O)[C@@H](CO)O3)c2=O)ccc1F | 49% ± 9.9%
Cc1cn([C@H]2C[C@H](O)[C@@H](CO)O2)c(=O)n(CCCCCCCNC(=O)c2ccc(F)c(C#N)c2)c1=O | 36% ± 6.5%
Cc1cn([C@H]2C[C@H](O)[C@@H](CO)O2)c(=O)n(CCCNC(=O)CCc2cccc([Si](F)(C(C)C)C(C)C)c2)c1=O | 15% ± 6.1%
Cc1cn([C@H]2C[C@H](O)[C@@H](CO)O2)c(=O)n(CC#CCF)c1=O | 23% ± 8.0%
Cc1cn([C@H]2C[C@H](O)[C@@H](CO)O2)c(=O)n(Cc2ccc(F)cc2)c1=O | 34% ± 18.6%
Cc1cn([C@H]2C[C@H](O)[C@@H](CO)S2)c(=O)n(CCCCCCF)c1=O | 26% ± 4.0%
Cc1cn([C@H]2C[C@H](O)[C@@H](CO)S2)c(=O)[nH]c1=O | 70% ± 9.3%
Cc1cn([C@H]2C[C@H](F)[C@@H](CO)O2)c(=O)[nH]c1=O [FLT, 3′-[F-18]fluoro-3′-deoxythymidine, reference compound] | 58% ± 11.9%
Cc1cn([C@H]2C[C@H](O)[C@@H](CO)O2)c(=O)n(CCCCF)c1=O [TD-1] | 13% ± 5.4%
Cc1cn([C@H]2C[C@H](O)[C@@H](CO)O2)c(=O)n(CCCCCCF)c1=O [TD-2] | 30% ± 3.7%
Cc1cn([C@H]2C[C@H](O)[C@@H](CO)O2)c(=O)n(CCCCCCNC(=O)c2ccc(F)c(C#N)c2)c1=O [TD-8] | 41% ± 9.5%
Cc1cn([C@H]2C[C@H](O)[C@@H](CO)O2)c(=O)n(CCCCNC(=O)c2ccc(F)c(C#N)c2)c1=O [TD-9] | 21% ± 4.6%
